The test relates to A/Parma/24/09 H1N1 oseltamivir-resistant virus. The test is classed as cell-based, Influenza A virus. Particulars: turkey erythrocytes.

Residues, ends and D or L forms follow the SMILES beside them.

With `C[C@@H](O)[C@H](NC(=O)[C@H](CCC(=O)O)NC(=O)[C@H](CO)NC(=O)[C@@H](N)CCCCN)C(=O)N[C@@H](CCCCN)C(=O)N[C@@H](CC(N)=O)C(=O)O` [Peptide 8, KSETKN] (H-KSETKN-OH; N-terminus and C-terminus assumed), the HI titer was 0.3 nM.

“NRKSSKHSSLDCVLRPTEGY [Peptide 10, bLf C-lobe fragment 414–433]” displayed an HI titer of 6 nM.

The compound “NRKSSKHSSLDCVLRP [Peptide 11, bLf C-lobe fragment 414–429]” showed an HI titer of 12 nM.

In turn, “SKHSSLDCVLRPTEGY [Peptide 12, bLf C-lobe fragment 418–433]” had an HI titer of 0.1 nM.

Compound `C[C@H](NC(=O)[C@H](Cc1c[nH]c2ccccc12)NC(=O)[C@H](CC(=O)O)NC(=O)[C@H](C)NC(=O)[C@@H](NC(=O)[C@H](CO)NC(=O)[C@H](CCC(=O)O)NC(=O)CNC(=O)[C@H](CC(N)=O)NC(=O)[C@@H](N)[C@@H](C)O)[C@@H](C)O)C(=O)N[C@@H](CCCCN)C(=O)N[C@@H](CC(N)=O)C(N)=O` [Peptide 6, TNGESTADWAKN] (H-TNGESTADWAKN-NH2; N-terminus and C-terminus assumed) showed an HI titer of 1.5 nM.

In turn, `CC(C)C[C@H](NC(=O)[C@H](CO)NC(=O)[C@H](CO)NC(=O)[C@H](Cc1c[nH]cn1)NC(=O)[C@H](CCCCN)NC(=O)[C@@H](N)CO)C(=O)N[C@@H](CC(=O)O)C(=O)N[C@@H](CS)C(=O)O` [Peptide 16, SKHSSLDC] (H-SKHSSLDC-OH; N-terminus and C-terminus assumed) registered an HI titer of 12 nM.

The compound `CC(C)C[C@H](NC(=O)[C@@H](NC(=O)[C@H](CS)NC(=O)[C@H](CC(=O)O)NC(=O)[C@H](CC(C)C)NC(=O)[C@@H](N)CO)C(C)C)C(=O)N[C@@H](CCCNC(=N)N)C(=O)N1CCC[C@H]1C(N)=O` [Peptide 13, SLDCVLRP] (H-SLDCVLRP-NH2) yielded an HI titer of 0.00015 nM.
